Source: ChEMBL document CHEMBL1201862, “PubChem BioAssay data set” (2004)
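Cells were grown in 96-well plates and exposed to each compound for 48 hours at five concentrations; endpoints were interpolated linearly between bracketing concentrations, or set to the highest concentration if not reached. Here, GI50 denotes the concentration required for 50% inhibition of growth.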 The source made the active and inactive calls. Rule as the data show it: active = GI50 up to about 1.1 µM and inactive = higher.

Legend:
Test in all cases: NCI tumour cell line growth inhibition, 48 h
[1] = test system: T47D
[2] = test system: OVCAR-4
[3] = test system: SF-295
[4] = test system: K562
[5] = test system: A549
[6] = test system: SF-268
[7] = test system: IGROV-1
[8] = test system: HL-60
[9] = test system: MDA-MB-231
[10] = test system: Hs-578T
[11] = test system: PC-3
[12] = test system: NCI/ADR-RES
[13] = test system: OVCAR-8
[14] = test system: OVCAR-5
[15] = test system: CCRF-CEM
[16] = test system: A498
[17] = test system: TK-10
[18] = test system: MCF7
[19] = test system: SK-OV-3
[20] = test system: SNB-75

| SMILES | GI50 [1] | GI50 [2] | GI50 [3] | GI50 [4] | GI50 [5] | GI50 [6] | GI50 [7] | GI50 [8] | GI50 [9] | GI50 [10] | GI50 [11] | GI50 [12] | GI50 [13] | GI50 [14] | GI50 [15] | GI50 [16] | GI50 [17] | GI50 [18] | GI50 [19] | GI50 [20] |
| --- | --- | --- | --- | --- | --- | --- | --- | --- | --- | --- | --- | --- | --- | --- | --- | --- | --- | --- | --- | --- |
| O=C(COc1ccc(OCC(=O)N/N=C/c2ccc(-c3ccc(Cl)cc3Cl)o2)c(Cl)c1)N/N=C/c1ccc(-c2ccc(Cl)cc2Cl)o1 | > 100 µM (inactive) | > 100 µM (inactive) | 32.2 µM (inactive) | 15.3 µM (inactive) | 85.5 µM (inactive) | 41.6 µM (inactive) | > 100 µM (inactive) | 16.4 µM (inactive) | 35 µM (inactive) | 80.2 µM (inactive) | 33.7 µM (inactive) | 12.3 µM (inactive) | 55.3 µM (inactive) | > 100 µM (inactive) | 14.8 µM (inactive) | 49.3 µM (inactive) | > 100 µM (inactive) | 41.8 µM (inactive) | – | – |
| CCC1c2[nH]c3ccccc3c2C[C@H]2C(=O)NC(CCC(=O)OC(C)(C)C)C(=O)N12 (stereo partly specified) | 40.6 µM (inactive) | 41.4 µM (inactive) | 42.3 µM (inactive) | 53.6 µM (inactive) | 43 µM (inactive) | 37.4 µM (inactive) | 53.8 µM (inactive) | 34 µM (inactive) | 66.4 µM (inactive) | 32.7 µM (inactive) | 33.7 µM (inactive) | 62.5 µM (inactive) | 48.4 µM (inactive) | 62.1 µM (inactive) | – | 89.7 µM (inactive) | 42.6 µM (inactive) | 42.4 µM (inactive) | 63.5 µM (inactive) | – |
| NCCNCC1CCNCC1 | > 100 µM (inactive) | > 100 µM (inactive) | > 100 µM (inactive) | > 100 µM (inactive) | > 100 µM (inactive) | > 100 µM (inactive) | > 100 µM (inactive) | – | > 100 µM (inactive) | > 100 µM (inactive) | > 100 µM (inactive) | > 100 µM (inactive) | > 100 µM (inactive) | > 100 µM (inactive) | – | > 100 µM (inactive) | > 100 µM (inactive) | > 100 µM (inactive) | > 100 µM (inactive) | > 100 µM (inactive) |
| CC(C)(NC(=O)OCc1ccccc1)C(=O)OC(=O)C(C)(C)NC(=O)OCc1ccccc1 | > 100 µM (inactive) | > 100 µM (inactive) | > 100 µM (inactive) | > 100 µM (inactive) | > 100 µM (inactive) | 0.653 µM (active) | > 100 µM (inactive) | – | > 100 µM (inactive) | > 100 µM (inactive) | > 100 µM (inactive) | > 100 µM (inactive) | > 100 µM (inactive) | > 100 µM (inactive) | > 100 µM (inactive) | > 100 µM (inactive) | – | > 100 µM (inactive) | 54.2 µM (inactive) | > 100 µM (inactive) |
| Cc1cc(-c2c(F)cc3c4nn([C@H]5CC[C@@H](N(C)C)CC5)c(=O)c-4cn(C4CC4)c3c2F)cc(C)n1 | 0.347 µM (active) | 3.36 µM (inactive) | 0.169 µM (active) | 0.0297 µM (active) | 0.161 µM (active) | 0.119 µM (active) | 1.66 µM (inactive) | 0.0383 µM (active) | 0.536 µM (active) | 0.173 µM (active) | 1.56 µM (inactive) | – | 0.221 µM (active) | 1.42 µM (inactive) | 0.0452 µM (active) | 0.0229 µM (active) | 0.519 µM (active) | 0.0728 µM (active) | 0.183 µM (active) | 0.0512 µM (active) |
| O=C(CCC(=O)c1ccsc1)c1ccsc1 | > 100 µM (inactive) | > 100 µM (inactive) | > 100 µM (inactive) | – | > 100 µM (inactive) | > 100 µM (inactive) | > 100 µM (inactive) | > 100 µM (inactive) | > 100 µM (inactive) | > 100 µM (inactive) | > 100 µM (inactive) | > 100 µM (inactive) | > 100 µM (inactive) | > 100 µM (inactive) | – | > 100 µM (inactive) | > 100 µM (inactive) | 74.8 µM (inactive) | > 100 µM (inactive) | > 100 µM (inactive) |
| Cc1cc2c(cc1N)C(C)C1(CCC(=O)N2Cc2ccccc2)OCCO1 (stereo unspecified) | > 100 µM (inactive) | > 100 µM (inactive) | > 100 µM (inactive) | – | > 100 µM (inactive) | 83.4 µM (inactive) | > 100 µM (inactive) | – | > 100 µM (inactive) | > 100 µM (inactive) | > 100 µM (inactive) | > 100 µM (inactive) | > 100 µM (inactive) | > 100 µM (inactive) | – | > 100 µM (inactive) | > 100 µM (inactive) | > 100 µM (inactive) | > 100 µM (inactive) | 32.3 µM (inactive) |
| CC(=O)OCC(C)C1=C(OC(C)=O)C(=O)C2(C)C/C=C(/C)CC/C=C(\C)CCC(OC(C)=O)C(C)CCC12 (stereo unspecified) | 16.1 µM (inactive) | 17.4 µM (inactive) | 15.8 µM (inactive) | 13.3 µM (inactive) | – | 15.4 µM (inactive) | 14.4 µM (inactive) | 10.9 µM (inactive) | 14.3 µM (inactive) | 25.4 µM (inactive) | 14.3 µM (inactive) | – | 19.1 µM (inactive) | 12.8 µM (inactive) | 22.4 µM (inactive) | – | 19.6 µM (inactive) | 21.3 µM (inactive) | – | 24.7 µM (inactive) |
| Cc1ccc2c(c1)OC1Nc3ccccc3C1=C2O (stereo unspecified) | 20.3 µM (inactive) | 40.4 µM (inactive) | 21.6 µM (inactive) | 25.9 µM (inactive) | 23.4 µM (inactive) | 40 µM (inactive) | 29.9 µM (inactive) | 16.2 µM (inactive) | 20.6 µM (inactive) | 73.8 µM (inactive) | 16.3 µM (inactive) | 20.9 µM (inactive) | 35 µM (inactive) | 32.6 µM (inactive) | – | 15.5 µM (inactive) | 22.9 µM (inactive) | 17.2 µM (inactive) | 13.9 µM (inactive) | 23.2 µM (inactive) |
| CCOC(=O)CSc1nc2ccccc2c(=O)n1N | > 100 µM (inactive) | > 100 µM (inactive) | > 100 µM (inactive) | > 100 µM (inactive) | 83 µM (inactive) | > 100 µM (inactive) | > 100 µM (inactive) | – | > 100 µM (inactive) | > 100 µM (inactive) | > 100 µM (inactive) | > 100 µM (inactive) | 32.8 µM (inactive) | > 100 µM (inactive) | – | > 100 µM (inactive) | 83.2 µM (inactive) | > 100 µM (inactive) | – | > 100 µM (inactive) |
| O=C(c1ccncc1)C1C(=O)c2ccccc2C1C1(O)c2ccccc2CC1C(O)c1ccncc1 (stereo unspecified) | 50.8 µM (inactive) | 27.9 µM (inactive) | 31.4 µM (inactive) | 42 µM (inactive) | 29.6 µM (inactive) | 46.7 µM (inactive) | 40.5 µM (inactive) | – | 39.2 µM (inactive) | 38.6 µM (inactive) | – | 46.6 µM (inactive) | 60 µM (inactive) | 65.6 µM (inactive) | – | 49.1 µM (inactive) | 90.8 µM (inactive) | 39.6 µM (inactive) | 7.96 µM (inactive) | 50 µM (inactive) |
| COc1c(C(=O)/C(=N/Nc2ccc(C(=O)O)cc2)C(C)=O)c(O)cc2occc12 | > 100 µM (inactive) | – | 82.8 µM (inactive) | > 100 µM (inactive) | > 100 µM (inactive) | > 100 µM (inactive) | > 100 µM (inactive) | 42.8 µM (inactive) | > 100 µM (inactive) | > 100 µM (inactive) | > 100 µM (inactive) | > 100 µM (inactive) | > 100 µM (inactive) | > 100 µM (inactive) | > 100 µM (inactive) | – | 15.6 µM (inactive) | > 100 µM (inactive) | > 100 µM (inactive) | 50.7 µM (inactive) |
| CC1(C)CC2=NC(SSC3=C(C#N)C(c4ccc(Br)cc4)C4=C(O)CC(C)(C)CC4=N3)=C(C#N)C(c3ccc(Br)cc3)C2=C(O)C1 (stereo unspecified) | > 100 µM (inactive) | > 100 µM (inactive) | > 100 µM (inactive) | 75 µM (inactive) | > 100 µM (inactive) | > 100 µM (inactive) | > 100 µM (inactive) | 46.6 µM (inactive) | > 100 µM (inactive) | > 100 µM (inactive) | > 100 µM (inactive) | > 100 µM (inactive) | > 100 µM (inactive) | > 100 µM (inactive) | > 100 µM (inactive) | > 100 µM (inactive) | > 100 µM (inactive) | – | > 100 µM (inactive) | – |
| O=C1c2ccccc2C(=O)N1C(=S)c1ccccc1 | > 100 µM (inactive) | > 100 µM (inactive) | > 100 µM (inactive) | > 100 µM (inactive) | > 100 µM (inactive) | > 100 µM (inactive) | > 100 µM (inactive) | > 100 µM (inactive) | > 100 µM (inactive) | > 100 µM (inactive) | > 100 µM (inactive) | > 100 µM (inactive) | > 100 µM (inactive) | > 100 µM (inactive) | > 100 µM (inactive) | – | > 100 µM (inactive) | > 100 µM (inactive) | > 100 µM (inactive) | > 100 µM (inactive) |
| CN(C)CCn1c2c(c3ccccc31)CCc1ccccc1-2 | 15.8 µM (inactive) | 14.3 µM (inactive) | 16.9 µM (inactive) | – | 15 µM (inactive) | 17.9 µM (inactive) | 10 µM (inactive) | – | 13.9 µM (inactive) | 15.1 µM (inactive) | 11.4 µM (inactive) | 15.6 µM (inactive) | 16 µM (inactive) | 17.9 µM (inactive) | 18.7 µM (inactive) | – | 16.7 µM (inactive) | 16.8 µM (inactive) | 18.7 µM (inactive) | – |
